Legend:
Assay type in all cases: cell-based
E. coli DH5α = experiment: Antibacterial activity: MIC and growth curve against E. coli DH5α in 96-well plate; details: minimal inhibitory concentration against E. coli DH5α; 96-well plate, 5×10^5 CFU/mL, 37° C., judged after 8 h
How it was run: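 MIC taken as lowest protein level with no bacterial growth, tracked by A600 every 30 min during 37 °C, 175 rpm culture. Two-fold protein series 50-12.5 μg/mL final, triplicate wells, against 5×10^5 CFU/mL of LB-washed mid-log cells.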

Aeromonas hydrophila = experiment: MIC against Gram-negative bacteria: Aeromonas hydrophila; details: 5×10^5 CFU/mL; for MIC against A. hydrophila: Aeromonas hydrophila
How it was run: (§1)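 Bacteria grown in LB at 37° C with shaking to McFarland 0.5, pelleted and resuspended in fresh LB, then seeded at 5×10^5 CFU/mL per well. Purified recombinant human EGF domain proteins were two-fold serially diluted in triplicate and plates shaken at 37° C, 175 rpm. MIC is the lowest protein concentration with no bacterial growth.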

Serratia marcescens = experiment: MIC against Gram-negative bacteria: Serratia marcescens; details: 5×10^5 CFU/mL; for MIC against S. marcescens: Serratia marcescens
How it was run: as §1

Proteus vulgaris = experiment: MIC against Gram-negative bacteria: Proteus vulgaris; details: 5×10^5 CFU/mL; for MIC against P. vulgaris: Proteus vulgaris
How it was run: as §1

Klebsiella pneumonia = experiment: MIC against Gram-negative bacteria: Klebsiella pneumonia; details: 5×10^5 CFU/mL; for MIC against K. pneumonia: Klebsiella pneumonia
How it was run: as §1

E. coli BL21 = experiment: MIC against Gram-negative bacteria: E. coli BL21; details: 5×10^5 CFU/mL
How it was run: as §1

Proteus mirabilis = experiment: MIC against Gram-negative bacteria: Proteus mirabilis; details: 5×10^5 CFU/mL; for MIC against P. mirabilis: Proteus mirabilis
How it was run: as §1

Citrobacter diversus = experiment: MIC against Gram-negative bacteria: Citrobacter diversus; details: 5×10^5 CFU/mL; for MIC against C. diversus: Citrobacter diversus
How it was run: as §1

Enterobacter cloacae = experiment: MIC against Gram-negative bacteria: Enterobacter cloacae; details: 5×10^5 CFU/mL; for MIC against E. cloacae: Enterobacter cloacae
How it was run: as §1

Moraxella catarrhalis = experiment: MIC against Gram-negative bacteria: Moraxella catarrhalis; details: 5×10^5 CFU/mL; for MIC against M. catarrhalis: Moraxella catarrhalis
How it was run: as §1

Pseudomonas aeruginosa = experiment: MIC against Gram-negative bacteria: Pseudomonas aeruginosa; details: 5×10^5 CFU/mL; for MIC against P. aeruginosa: Pseudomonas aeruginosa
How it was run: as §1

[1] = E. coli BL21, 10 h cultivation at 37° C.
[2] = 10 h cultivation at 37° C., two-fold serial dilution

Substance: PRT841 (PEDECANGHHDCNETQNCHDQPHGYECSCKTGYTMDNMT; listed as Homo sapiens)
- MIC (E. coli DH5α): 12.5 µg/mL
- MIC (μg/mL) A. hydrophila (Aeromonas hydrophila; A. hydrophila, 10 h cultivation at 37° C.): 50 µg/mL
- MIC (μg/mL) S. marcescens (Serratia marcescens; S. marcescens, 10 h cultivation at 37° C.): 12.5 µg/mL
- MIC (μg/mL) P. vulgaris (Proteus vulgaris; P. vulgaris, 10 h cultivation at 37° C.): 50 µg/mL
- MIC (μg/mL) K. pneumonia (Klebsiella pneumonia; K. pneumonia, 10 h cultivation at 37° C.): 50 µg/mL
- MIC (μg/mL) E. coli BL21 (E. coli BL21; [1]): 25 µg/mL
- MIC (μg/mL) P. mirabilis (Proteus mirabilis; P. mirabilis, 10 h cultivation at 37° C.): 12.5 µg/mL
- MIC (μg/mL) C. diversus (Citrobacter diversus; C. diversus, 10 h cultivation at 37° C.): 12.5 µg/mL
- MIC (μg/mL) E. cloacae (Enterobacter cloacae; E. cloacae, 10 h cultivation at 37° C.): 12.5 µg/mL
- MIC (μg/mL) M. catarrhalis (Moraxella catarrhalis; M. catarrhalis, 10 h cultivation at 37° C.): 50 µg/mL
- MIC (μg/mL) P. aeruginosa (Pseudomonas aeruginosa; P. aeruginosa, 10 h cultivation at 37° C.): 12.5 µg/mL

Substance: PRT1387 (IMDDCSTNCNGNGECISGHCHCFPGFLGPDCA; listed as Homo sapiens)
- MIC (E. coli DH5α): 12.5 µg/mL
- MIC against A. hydrophila (Aeromonas hydrophila; 10 h cultivation at 37° C.): 50 µg/mL
- MIC against S. marcescens (Serratia marcescens; 10 h cultivation at 37° C.): 25 µg/mL
- MIC against P. vulgaris (Proteus vulgaris; 10 h cultivation at 37° C.): 12.5 µg/mL
- MIC against K. pneumonia (Klebsiella pneumonia; 10 h cultivation at 37° C.): 25 µg/mL
- MIC against E. coli BL21 (E. coli BL21; [1]): 12.5 µg/mL
- MIC against P. mirabilis (Proteus mirabilis; 10 h cultivation at 37° C.): 25 µg/mL
- MIC against C. diversus (Citrobacter diversus; 10 h cultivation at 37° C.): 25 µg/mL
- MIC against E. cloacae (Enterobacter cloacae; 10 h cultivation at 37° C.): 12.5 µg/mL
- MIC against M. catarrhalis (Moraxella catarrhalis; 10 h cultivation at 37° C.): 12.5 µg/mL
- MIC against P. aeruginosa (Pseudomonas aeruginosa; 10 h cultivation at 37° C.): 50 µg/mL

Substance: PRT1327 (EINPCLENHGGCDKNAECTQTGPNQAACNCLPAYTGDGKVCT; listed as Homo sapiens)
- MIC (E. coli DH5α): 25 µg/mL
- MIC against A. hydrophila (Aeromonas hydrophila; 96-well plate, 37° C., 10 h): 12.5 µg/mL
- MIC against S. marcescens (Serratia marcescens; 96-well plate, 37° C., 10 h): 25 µg/mL
- MIC against P. vulgaris (Proteus vulgaris; 96-well plate, 37° C., 10 h): 12.5 µg/mL
- MIC against K. pneumonia (Klebsiella pneumonia; 96-well plate, 37° C., 10 h): 12.5 µg/mL
- MIC against E. coli BL21 (E. coli BL21; E. coli BL21, 96-well plate, 37° C., 10 h): 12.5 µg/mL
- MIC against P. mirabilis (Proteus mirabilis; 96-well plate, 37° C., 10 h): 12.5 µg/mL
- MIC against C. diversus (Citrobacter diversus; 96-well plate, 37° C., 10 h): 12.5 µg/mL
- MIC against E. cloacae (Enterobacter cloacae; 96-well plate, 37° C., 10 h): 50 µg/mL
- MIC against M. catarrhalis (Moraxella catarrhalis; 96-well plate, 37° C., 10 h): 12.5 µg/mL
- MIC against P. aeruginosa (Pseudomonas aeruginosa; 96-well plate, 37° C., 10 h): 50 µg/mL

Substance: PRT1398 (EVDCLDPTCSSHGVCVNGECLCSPGWGGLNCEL; listed as Homo sapiens)
- MIC (E. coli DH5α): 25 µg/mL
- MIC against A. hydrophila (Aeromonas hydrophila; 10 h cultivation at 37° C.): 25 µg/mL
- MIC against S. marcescens (Serratia marcescens; 10 h cultivation at 37° C.): 12.5 µg/mL
- MIC against P. vulgaris (Proteus vulgaris; 10 h cultivation at 37° C.): 25 µg/mL
- MIC against K. pneumonia (Klebsiella pneumonia; 10 h cultivation at 37° C.): 25 µg/mL
- MIC against E. coli BL21 (E. coli BL21; [1]): 25 µg/mL
- MIC against P. mirabilis (Proteus mirabilis; 10 h cultivation at 37° C.): 12.5 µg/mL
- MIC against C. diversus (Citrobacter diversus; 10 h cultivation at 37° C.): 12.5 µg/mL
- MIC against E. cloacae (Enterobacter cloacae; 10 h cultivation at 37° C.): 50 µg/mL
- MIC against M. catarrhalis (Moraxella catarrhalis; 10 h cultivation at 37° C.): 25 µg/mL
- MIC against P. aeruginosa (Pseudomonas aeruginosa; 10 h cultivation at 37° C.): 12.5 µg/mL

Substance: PRT726 (LPPPCRCMHGGNCYFDETDLPKCKCPSGYTGKYCE; listed as Homo sapiens)
- MIC (E. coli DH5α): 12.5 µg/mL
- MIC A. hydrophila (Aeromonas hydrophila; 96-well plate, 37° C., 10 h): 25 µg/mL
- MIC S. marcescens (Serratia marcescens; 96-well plate, 37° C., 10 h): 25 µg/mL
- MIC P. vulgaris (Proteus vulgaris; 96-well plate, 37° C., 10 h): 50 µg/mL
- MIC K. pneumonia (Klebsiella pneumonia; 96-well plate, 37° C., 10 h): 25 µg/mL
- MIC E. coli BL21 (E. coli BL21; 96-well plate, 37° C., 10 h): 50 µg/mL
- MIC P. mirabilis (Proteus mirabilis; 96-well plate, 37° C., 10 h): 12.5 µg/mL
- MIC C. diversus (Citrobacter diversus; 96-well plate, 37° C., 10 h): 50 µg/mL
- MIC E. cloacae (Enterobacter cloacae; 96-well plate, 37° C., 10 h): 12.5 µg/mL
- MIC M. catarrhalis (Moraxella catarrhalis; 96-well plate, 37° C., 10 h): 25 µg/mL
- MIC P. aeruginosa (Pseudomonas aeruginosa; 96-well plate, 37° C., 10 h): 25 µg/mL

Substance: PRT1105 (EIDECWSQPCLNGATCQDALGAYFCDCAPGFLGDHCE; listed as Homo sapiens)
- MIC (E. coli DH5α): 12.5 µg/mL
- MIC A. hydrophila (Aeromonas hydrophila; [2]): 25 µg/mL
- MIC S. marcescens (Serratia marcescens; [2]): 50 µg/mL
- MIC P. vulgaris (Proteus vulgaris; [2]): 12.5 µg/mL
- MIC K. pneumonia (Klebsiella pneumonia; [2]): 12.5 µg/mL
- MIC E. coli BL21 (E. coli BL21; [2]): 25 µg/mL
- MIC P. mirabilis (Proteus mirabilis; [2]): 50 µg/mL
- MIC C. diversus (Citrobacter diversus; [2]): 12.5 µg/mL
- MIC E. cloacae (Enterobacter cloacae; [2]): 50 µg/mL
- MIC M. catarrhalis (Moraxella catarrhalis; [2]): 25 µg/mL
- MIC P. aeruginosa (Pseudomonas aeruginosa; [2]): 50 µg/mL
